From patent publication US20020092037A1, “Use of membrane supports in plant tissue culture processes” (priority 2000, published 2002)

Experiments:
[1] = test system: P. taeda embryogenic cell lines; assay: Embryo development and germination with abscisic acid applied in a liquid phase under polyester membranes; type: cell-based, Pinus taeda
Method: Loblolly pine embryogenic cell cultures were initiated, proliferated, cryopreserved, retrieved, further proliferated on gelled maintenance medium, and placed into liquid suspension for plating on embryo development medium MSG1 as described in Examples 3-4 above. Three replicate plates of each line were prepared for each of the following treatments:
Treatment B: the cells were plated onto polyester support membranes laid onto 1 ml liquid embryo development medium MSG1 containing PEG but lacking gelling agent and activated charcoal, pipetted over gelled embryo development medium MSG1
Treatment C: the cells were plated onto polyester support membranes laid onto 1 ml liquid embryo development medium MSG1 containing PEG but lacking gelling agent and activated charcoal, pipetted over gelled embryo development medium MSG1 lacking abscisic acid.
Embryos were developed, harvested and germinated as described in Example 4 above. The results of the counts of high quality cotyledonary stage embryos, and the germination tests with these embryos, are shown in Table 20 below.
In another experiment, an attempt had been made to decrease the osmotic potential of the liquid phase in order to facilitate filter sterilization.

[2] = test system: P. taeda embryogenic cell lines; assay: as above; type: cell-based, Pinus taeda; remark: listed apart in the source
[3] = test system: Hybrid pine embryogenic cell lines; assay: Embryogenicity after biphasic maintenance treatments, hybrid pine; type: cell-based; details: for % germination: embryos from cultures maintained over eradicant liquid phase; for Average Number Of Embryos Harvested Per Plate: eradicant in liquid phase during maintenance, cefotaxime 500 mg/L, TIMENTIN 400 mg/L
[4] = test system: P. taeda embryogenic cell lines; assay: Growth of pine embryogenic cells on polyester supports over biphasic media with eradicants, P. taeda; type: cell-based, Pinus taeda; details: liquid phase under polyester support, cefotaxime 500 mg/L, TIMENTIN 400 mg/L
Excerpt: (§1) Loblolly pine cell lines were used which had been grown and maintained as described in Examples 3-4 above, and purposely infected with bacteria as described in Example 6 above. Support membranes bearing plant tissue were then placed on gelled DCR2 maintenance media with various decontamination treatments. These treatments consisted of antibiotics (cefotaxime, carbenicillin, AUGMENTIN® or TIMENTIN®) as eradicants incorporated into the gelled DCR2 maintenance or selection media, the antibiotics incorporated into liquid DCR3 pipetted in a thin film over gelled DCR2 maintenance media lacking antibiotics, or the antibiotics incorporated into liquid DCR3 which was saturated into a filter paper laid on gelled DCR2 maintenance media lacking antibiotics. Support membranes bearing control cells were placed either on gelled DCR2 maintenance media, over liquid DCR3 pipetted in a thin film over gelled DCR2 maintenance media lacking antibiotics, or over a filter paper saturated with liquid DCR3 and laid on gelled DCR2 maintenance media lacking antibiotics. Decontamination and maintenance were continued for a period of approximately 12 weeks with transfer of the polyester support membranes, bearing the cells, every 14-21 days.

[5] = test system: Hybrid pine embryogenic cell lines; assay: Growth of pine embryogenic cells on polyester supports over biphasic media with eradicants, hybrid pine; type: cell-based; details: liquid phase under polyester support, cefotaxime 500 mg/L, TIMENTIN 400 mg/L
[6] = test system: P. taeda embryogenic cell lines; assay: Embryo development over eradicants in liquid phase of biphasic development and maturation media, P. taeda; type: cell-based, Pinus taeda; details: eradicant in liquid phase of development/maturation media, cefotaxime 500 mg/L, TIMENTIN 400 mg/L
Excerpt: Agrobacterium contamination has been reported as recurring sometimes after long periods of time. With many species, eradicants are incorporated in all culture media used after the initial infection, including selection media, proliferation media, media to induce the formation of organs or the development of somatic embryos, media to elongate or mature organs or embryos that are formed, and regeneration media. For pine embryogenic cells, incorporation of eradicants into the embryo development and maturation media has been difficult due to the high temperature of polymerization of the media resulting from the incorporation of a high level of polyethylene glycol. Therefore, loblolly and hybrid pine cell lines grown and maintained as described in Examples 3-4 above were placed on polyester support membranes over gelled MSG1 embryo development and maturation media as described in Example 4 above, except that some of the development and maturation media were overlaid with various eradication treatments under the polyester support membranes. The treatments consisted of either no liquid phase, or a liquid phase identical to the gelled phase (except that gelling agent and activated charcoal were omitted) and incorporating either cefotaxime or TIMENTIN® as an eradicant. Three replicate plates were generated from each of […] (two from each of two P. taeda families and one hybrid pine family) for each of the treatments, and assessed for the ability of the cultures to develop high quality harvestable stage 3 embryos. Dishes were incubated in a dark growth chamber at 23±2° C. The membrane supports were transferred to new petri dishes containing fresh medium every 3 weeks. At week 9, stage 3 embryos were counted and those deemed suitable for germination were harvested.

[7] = test system: Hybrid pine embryogenic cell lines; assay: Embryo development over eradicants in liquid phase of biphasic development and maturation media, hybrid pine; type: cell-based; details: eradicant in liquid phase of development/maturation media, cefotaxime 500 mg/L, TIMENTIN 400 mg/L
Excerpt: Agrobacterium contamination has been reported as recurring sometimes after long periods of time. With many species, eradicants are incorporated in all culture media used after the initial infection, including selection media, proliferation media, media to induce the formation of organs or the development of somatic embryos, media to elongate or mature organs or embryos that are formed, and regeneration media. For pine embryogenic cells, incorporation of eradicants into the embryo development and maturation media has been difficult due to the high temperature of polymerization of the media resulting from the incorporation of a high level of polyethylene glycol. […] Three replicate plates were generated from each of six embryogenic cell lines (two from each of two P. taeda families and one hybrid pine family) for each of the treatments, and assessed for the ability of the cultures to develop high quality harvestable stage 3 embryos. […] At week 9, stage 3 embryos were counted and those deemed suitable for germination were harvested.

[8] = test system: P. taeda embryogenic cell lines; assay: Embryogenicity after biphasic maintenance treatments, P. taeda; type: cell-based, Pinus taeda; details: for % germination: embryos from cultures maintained over eradicant liquid phase; for Average Number Of Embryos Harvested Per Plate: eradicant in liquid phase during maintenance, cefotaxime 500 mg/L, TIMENTIN 400 mg/L
Excerpt: as §1

[9] = test system: unknown fungus on Eucalyptus camaldulensis leaf explants; assay: Decontamination of Eucalyptus leaf explants of fungus; type: cell-based
Excerpt: Eucalyptus camaldulensis leaves were explanted from seedlings for the production of callus, and then discovered to be contaminated with an unknown fungus. Contaminated explants were shaken together to obtain the same degree of contamination for all explants to be used in this decontamination example. Contamination of each explant with the fungus was verified by streaking the explant on a potato dextrose agar plate, and observing independent growth of the fungus on the potato dextrose agar.
Approximately half the Eucalyptus leaf explants were then treated to decontamination by washing and collection of the tissue using polyester support membranes after each wash, similar to the improved decontamination method described in Example 6, split among five treatments:
Following the washing of half the material according to the protocol described in […] in the treatments described in the paragraph above, using three washes of 30 minutes each, the washed and non-washed material was then divided over the same support membrane treatments A-F as described in Example 8, except that nested within each support membrane treatment was the prior washing or lack of washing treatment, and within each of these latter treatments, the five fungicidal treatments listed above were further nested, wherein the antifungal agents benomyl, miconazole, nystatin or thiophanate were added to the medium subtending the tissue and supports in place of cefotaxime. Finally, non-contaminated explants were submitted to all treatments to determine the effects of the treatments on plant regeneration in the absence of fungus. Five explants were plated for each treatment combination.
The explants were then cultured in a growth chamber set at 27±3° C. and under low light, and were transferred biweekly using the same support membranes but supplying fresh sterile liquid and solid medium.

[10] = P1, gelled phase lacking abscisic acid and liquid phase containing abscisic acid
[11] = P1, liquid phase with same abscisic acid content as gelled phase
[12] = P2, gelled phase lacking abscisic acid and liquid phase containing abscisic acid
[13] = P2, liquid phase with same abscisic acid content as gelled phase

**Q.** Which “Average Number Of High Quality Cotyledonary Embryos Per Plate” value [1, 10] does the source give for `CC1=CC(=O)CC(C)(C)[C@@]1(O)/C=C/C(C)=C\C(=O)O` [Abscisic Acid, Abscisic acid] here?
**A.** 30.3 ± 7.1

**Q.** And the “Percentage Of Resulting Embryos That Germinated” value [1, 10]?
**A.** 52.5%

**Q.** And the “Average Number Of High Quality Cotyledonary Embryos Per Plate” value [1, 11]?
**A.** 44.3 ± 21.1

**Q.** What about the “Average Number Of High Quality Cotyledonary Embryos Per Plate” value [1, 12] of the same compound?
**A.** 48.7 ± 5.0

**Q.** What about the “Percentage Of Resulting Embryos That Germinated” value [1, 12] of the same compound?
**A.** 57.5%

**Q.** What about the “Average Number Of High Quality Cotyledonary Embryos Per Plate” value [1, 13] of the same compound?
**A.** 44.3 ± 4.9

**Q.** What about the “Percentage Of Resulting Embryos That Germinated” value [1, 13] of the same compound?
**A.** 67.5%

**Q.** And the “decrease in embryos per plate” value ([1]; abscisic acid in liquid phase only, overall use of 5% of the amount)?
**A.** 30-60%

**Q.** And the “Average Number Of High Quality Cotyledonary Embryos Per Plate” value ([2]; L5, Liquid Phase containing ABA and PEG)?
**A.** 26.3 ± 45.6

**Q.** And the “Average Number Of High Quality Cotyledonary Embryos Per Plate” value ([2]; L5, Liquid Phase containing ABA but no PEG)?
**A.** 201.0 ± 44.5

**Q.** And the “Average Number Of High Quality Cotyledonary Embryos Per Plate” value ([2]; L9, Liquid Phase containing ABA and PEG)?
**A.** 64.0 ± 23.6

**Q.** And the “Average Number Of High Quality Cotyledonary Embryos Per Plate” value ([2]; L9, Liquid Phase containing ABA but no PEG)?
**A.** 97.0 ± 20.7

**Q.** What about the “Average Number Of High Quality Cotyledonary Embryos Per Plate” value ([2]; L42, Liquid Phase containing ABA and PEG) of the same compound?
**A.** 0

**Q.** What about the “Average Number Of High Quality Cotyledonary Embryos Per Plate” value ([2]; L42, Liquid Phase containing ABA but no PEG) of the same compound?
**A.** 0

**Q.** And the “Percentage Of Resulting Embryos That Germinated” value [2, 11]?
**A.** 55.0%

**Q.** What does the source list for `CO/N=C(\C(=O)N[C@@H]1C(=O)N2C(C(=O)O)=C(COC(C)=O)CS[C@H]12)c1csc(N)n1` [cefotaxime]?
**A.** % germination ([3]; H1): (96%); Average Number Of Embryos Harvested Per Plate ([3]; H1): 152.0 ± 40.8; % germination ([3]; H2): (88%); Average Number Of Embryos Harvested Per Plate ([3]; H2): 77.0 ± 10.4; Average growth over a one-month period (two transfers) ([4]; P1): 7.20 + 0.28; Average growth over a one-month period (two transfers) ([4]; P2): 1.93 + 0.24; Average growth over a one-month period (two transfers) ([4]; P3): 6.75 + 0.25; Average growth over a one-month period (two transfers) ([4]; P4): 8.97 + 0.19; Average growth over a one-month period (two transfers) ([5]; H1): 4.53 + 0.28; Average growth over a one-month period (two transfers) ([5]; H2): 8.76 + 0.63; Number of Harvestable Cotyledonary Stage Embryos Developed ([6]; P1): 208.0 ± 94.8; Number of Harvestable Cotyledonary Stage Embryos Developed ([6]; P2): 269.0 ± 23.3; Number of Harvestable Cotyledonary Stage Embryos Developed ([6]; P3): 25.0 ± 17.7; Number of Harvestable Cotyledonary Stage Embryos Developed ([6]; P4): 18.0 ± 1.0; Number of Harvestable Cotyledonary Stage Embryos Developed ([7]; H1): 200.0 ± 51.2; Number of Harvestable Cotyledonary Stage Embryos Developed ([7]; H2): 210.0 ± 67.1; % germination ([8]; P1): (10%); Average Number Of Embryos Harvested Per Plate ([8]; P1): 87.0 ± 37.5; % germination ([8]; P2): (66%); Average Number Of Embryos Harvested Per Plate ([8]; P2): 81.7 ± 44.5; % germination ([8]; P3): (21%); Average Number Of Embryos Harvested Per Plate ([8]; P3): 14.3 ± 4.2; % germination ([8]; P4): (36%); Average Number Of Embryos Harvested Per Plate ([8]; P4): 34.0 ± 16.1

**Q.** For `Clc1ccc(COC(Cn2ccnc2)c2ccc(Cl)cc2Cl)c(Cl)c1` (stereo not shown) [miconazole, Miconazole], which “contaminated explants in which decontamination did not succeed” value ([9]; contaminated Eucalyptus explants) is on record?
**A.** 7.5%

**Q.** And the decontamination rate ([9]; contaminated Eucalyptus explants, 50 mg/L in wash medium)?
**A.** 92.5%

**Q.** `CCCCNC(=O)n1c(NC(=O)OC)nc2ccccc21` [benomyl, Benomyl] was tested. Which “phenolic release into the medium from plant tissue” value ([9]; also from successfully decontaminated plant tissue) did it give?
**A.** elicited considerable phenolic release into the medium

**Q.** And the decontamination ([9]; in the washing (100 mg/L) and incorporated into the medium below the polyester supports)?
**A.** largely ineffective in decontamination
